In ChEMBL document CHEMBL4811260, “Isolation, synthesis and absolute configuration of 4,5-dihydroxypiperines improving behavioral disorder in AlCl3-induced dementia” (2021):
Activity calls are given as the source filed them. The calls are words filed in the database; no cut-off is given here.

How the values were obtained:
Danio rerio [1] = species on record: Danio rerio; test: Antialzheimer activity against AlCl3-induced dementia zebrafish model assessed as increase in dyskinesia recovery rate at 10 uM measured for 60 mins under alternating light and dark environment in presence of 150 uM of AlCl3 relative to control; format: functional
Danio rerio [2] = species on record: Danio rerio; test: Antialzheimer activity against AlCl3-induced dementia zebrafish model assessed as increase in zebrafish movement speed at 10 uM measured for 60 mins under alternating light and dark environment in presence of 150 uM of AlCl3; format: functional, organism-based
Danio rerio [3] = species on record: Danio rerio; test: Antialzheimer activity against AlCl3-induced dementia zebrafish model assessed as increase in response efficiency at 10 uM measured for 60 mins under alternating light and dark environment in presence of 150 uM of AlCl3 relative to control; format: functional
Danio rerio [4] = species on record: Danio rerio; test: Antialzheimer activity against AlCl3-induced dementia zebrafish model assessed as increase in zebrafish movement speed change at 10 uM measured for 60 mins under alternating light and dark environment in presence of 150 uM of AlCl3; format: functional, organism-based

O=C(/C=C/[C@@H](O)[C@@H](O)c1ccc2c(c1)OCO2)N1CCCCC1
Activity (Danio rerio [1]; 1 h): 73.8% | Activity (Danio rerio [2]): Active | Activity (Danio rerio [3]; 1 h): 85.4% | Activity (Danio rerio [4]): Active

O=C(/C=C/[C@@H](O)[C@H](O)c1ccc2c(c1)OCO2)N1CCCCC1
Activity (Danio rerio [1]): inactive | Activity (Danio rerio [3]): inactive

O=C(/C=C/[C@H](O)[C@H](O)c1ccc2c(c1)OCO2)N1CCCCC1
Activity (Danio rerio [1]): inactive | Activity (Danio rerio [3]): inactive

O=C(/C=C/[C@H](O)[C@@H](O)c1ccc2c(c1)OCO2)N1CCCCC1
Activity (Danio rerio [1]): inactive | Activity (Danio rerio [3]): inactive
